Measured values: US20250215029A1 (Recludix Pharma, Inc., priority 2022, published 2025)

These compounds were tested against T1, pY705-STAT3 in PBMC (Homo sapiens, UniProt P40763) (assay: MSD-pSTAT-PBMC Assay (pSTAT3, IL-6 stimulated)). Conditions: PBMC, compound 3 hrs, then 10 ng/mL IL-6 for 10 min; Table 115; read-out: STAT3.
T1 construct: Cryopreserved Peripheral Blood Mononuclear Cells (PBMC) are from AllCells; host or cells: cryopreserved PBMC
T1 sequence (P40763 whole entry): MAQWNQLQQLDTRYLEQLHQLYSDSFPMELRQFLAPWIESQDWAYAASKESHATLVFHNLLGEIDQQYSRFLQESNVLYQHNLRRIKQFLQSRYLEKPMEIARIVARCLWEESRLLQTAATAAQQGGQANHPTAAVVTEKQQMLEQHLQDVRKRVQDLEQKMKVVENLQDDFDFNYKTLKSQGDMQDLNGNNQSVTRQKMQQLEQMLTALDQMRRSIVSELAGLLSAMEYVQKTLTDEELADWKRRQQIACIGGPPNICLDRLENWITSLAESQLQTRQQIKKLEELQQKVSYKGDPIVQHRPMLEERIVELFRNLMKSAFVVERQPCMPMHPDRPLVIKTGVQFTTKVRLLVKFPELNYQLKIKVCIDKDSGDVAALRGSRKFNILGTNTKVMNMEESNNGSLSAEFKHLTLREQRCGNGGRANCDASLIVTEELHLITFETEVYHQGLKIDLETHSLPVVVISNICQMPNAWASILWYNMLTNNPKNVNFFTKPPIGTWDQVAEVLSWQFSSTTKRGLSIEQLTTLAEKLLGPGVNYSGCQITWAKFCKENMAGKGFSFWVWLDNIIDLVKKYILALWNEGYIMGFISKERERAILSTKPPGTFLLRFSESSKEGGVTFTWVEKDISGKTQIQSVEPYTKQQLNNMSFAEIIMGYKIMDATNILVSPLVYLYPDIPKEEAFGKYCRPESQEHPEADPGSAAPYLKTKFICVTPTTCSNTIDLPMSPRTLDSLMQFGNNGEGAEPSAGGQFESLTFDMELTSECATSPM
Format: cell-based
Summary of the method: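 pY705-STAT3 was detected electrochemiluminescently on total-STAT3 capture plates, using lysates of human PBMCs given compound for 3 h and then IL-6 (10 ng/mL, 10 min). Values were background-subtracted against unstimulated wells and set relative to DMSO. IC50 was fitted with variable slope.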
`CCCOC(=O)[C@H](C)NP(=O)(Oc1ccccc1)[C@@H](F)c1ccc2sc(C(=O)N[C@H]3CCC[C@H]4CC[C@@H](C(=O)N5CC(c6cncc(F)c6N(C)C)C5)N4C3=O)cc2c1` (stereo partly drawn) [Compound 1022, propyl (((R)-(2-(((3S,6S,9aS)-3-(3-(4-(dimethylamino)-5-fluoropyridin-3-yl)azetidine-1-carbonyl)-5-oxooctahydro-1H-pyrrolo[1,2-a]azepin-6-yl)carbamoyl)benzo [b]thiophen-5-yl)fluoromethyl) (phenoxy)phosphoryl)-L-alaninate] gave an IC50 of less than 100 nM.
Compound `CCCOC(=O)[C@H](C)NP(=O)(Oc1ccccc1)[C@H](F)c1ccc2sc(C(=O)N[C@H]3CCC[C@H]4CC[C@@H](C(=O)N5CC(c6cnccc6N6CCC6)C5)N4C3=O)cc2c1` (stereo partly drawn) [Compound 1024, propyl (((S)-(2-(((3S,6S,9aS)-3-(3-(4-(azetidin-1-yl)pyridin-3-yl)azetidine-1-carbonyl)-5-oxooctahydro-1H-pyrrolo[1,2-a]azepin-6-yl)carbamoyl)benzo [b]thiophen-5-yl)fluoromethyl) (phenoxy)phosphoryl)-L-alaninate] has an IC50 of 100 to 1000 nM.
In the case of `CCCOC(=O)[C@H](C)NP(=O)(Cc1ccc2sc(C(=O)N[C@H]3CCC[C@H]4CC[C@@H](C(=O)N5CC(c6cnccc6N(C)C)C5)N4C3=O)cc2c1)OCC(F)(F)F` (stereo partly drawn) [Compound 1025, propyl (((2-(((3S,6S,9aS)-3-(3-(4-(dimethylamino)pyridin-3-yl)azetidine-1-carbonyl)-5-oxooctahydro-1H-pyrrolo[1,2-a]azepin-6-yl)carbamoyl)benzo [b]thiophen-5-yl)methyl)(2,2,2-trifluoroethoxy)phosphoryl)-L-alaninate], the IC50 is reported as less than 100 nM.
`CCCOC(=O)[C@H](C)NP(=O)(Oc1ccccc1)[C@@H](F)c1ccc2sc(C(=O)N[C@H]3CCC[C@H]4CC[C@@H](C(=O)N5CC(c6cncc(F)c6NC)C5)N4C3=O)cc2c1` (stereo partly drawn) [Compound 1026, propyl (((R)-fluoro(2-(((3S,6S,9aS)-3-(3-(5-fluoro-4-(methylamino)pyridin-3-yl)azetidine-1-carbonyl)-5-oxooctahydro-1H-pyrrolo[1,2-a]azepin-6-yl)carbamoyl)benzo [b]thiophen-5-yl)methyl)(phenoxy)phosphoryl)-L-alaninate] gave an IC50 of less than 100 nM.
`CCCOC(=O)[C@H](C)NP(=O)(Oc1ccccc1)[C@@H](F)c1ccc2sc(C(=O)N[C@H]3CCC[C@H]4CC[C@@H](C(=O)N5CC(c6cnccc6N6CCC6)C5)N4C3=O)cc2c1` (stereo partly drawn) [Compound 1028, propyl (((R)-(2-(((3S,6S,9aS)-3-(3-(4-(azetidin-1-yl)pyridin-3-yl)azetidine-1-carbonyl)-5-oxooctahydro-1H-pyrrolo[1,2-a]azepin-6-yl)carbamoyl)benzo [b]thiophen-5-yl)fluoromethyl) (phenoxy)phosphoryl)-L-alaninate] was tested, and the IC50 was 100 to 1000 nM.
Work on `CCCOC(=O)[C@H](C)NP(=O)(Oc1ccccc1)[C@@H](F)c1ccc2sc(C(=O)N[C@H]3C[C@@H](C)C[C@H]4CC[C@@H](C(=O)N5CC(c6cnccc6N(C)C)C5)N4C3=O)cc2c1` (stereo partly drawn) [Compound 1029, propyl (((R)-(2-(((3S,6S,8R,9aR)-3-(3-(4-(dimethylamino)pyridin-3-yl)azetidine-1-carbonyl)-8-methyl-5-oxooctahydro-1H-pyrrolo[1,2-a]azepin-6-yl)carbamoyl)benzo [b]thiophen-5-yl)fluoromethyl) (phenoxy)phosphoryl)-L-alaninate] yielded an IC50 of less than 100 nM.
`CCCOC(=O)[C@H](C)NP(=O)(Oc1ccccc1)[C@@H](F)c1ccc2sc(C(=O)N[C@H]3CCC[C@H]4CC[C@@H](C(=O)N[C@H]5CN(c6ncc[nH]6)C[C@@H]5F)N4C3=O)cc2c1` (stereo partly drawn) [Compound 1030, propyl (((R)-fluoro(2-(((3S,6S,9aS)-3-(((3S,4S)-4-fluoro-1-(1H-imidazol-2-yl)pyrrolidin-3-yl)carbamoyl)-5-oxooctahydro-1H-pyrrolo[1,2-a]azepin-6-yl)carbamoyl)benzo [b]thiophen-5-yl)methyl)(phenoxy)phosphoryl)-L-alaninate] was tested, and the IC50 was greater than 3000 nM.
With `CCCOC(=O)[C@H](C)NP(=O)(Cc1ccc2sc(C(=O)N[C@H]3CCC[C@H]4CC[C@@H](C(=O)N5CC(c6cnccc6N6CCC6)C5)N4C3=O)cc2c1)Oc1ccccc1` (stereo partly drawn) [Compound 1031, propyl (((2-(((3S,6S,9aS)-3-(3-(4-(azetidin-1-yl)pyridin-3-yl)azetidine-1-carbonyl)-5-oxooctahydro-1H-pyrrolo[1,2-a]azepin-6-yl)carbamoyl)benzo [b]thiophen-5-yl)methyl)(phenoxy)phosphoryl)-L-alaninate] the IC50 was less than 100 nM.
In the case of `CCCOC(=O)[C@H](C)NP(=O)(Cc1ccc2sc(C(=O)N[C@H]3CCC[C@H]4CC[C@@H](C(=O)N5CC(c6cnccc6N6CCOCC6)C5)N4C3=O)cc2c1)Oc1ccccc1` (stereo partly drawn) [Compound 1038, propyl (((2-(((3S,6S,9aS)-3-(3-(4-morpholinopyridin-3-yl)azetidine-1-carbonyl)-5-oxooctahydro-1H-pyrrolo[1,2-a]azepin-6-yl)carbamoyl)benzo [b]thiophen-5-yl)methyl)(phenoxy)phosphoryl)-L-alaninate], the IC50 is reported as less than 100 nM.
Compound `CCCOC(=O)[C@H](C)NP(=O)(Oc1ccccc1)C(F)c1ccc2sc(C(=O)N[C@H]3CCC[C@H]4CC[C@@H](C(=O)N5CC(c6cncnc6OC)C5)N4C3=O)cc2c1` (stereo partly drawn) [Compound 1042, propyl ((fluoro(2-(((3S,6S,9aS)-3-(3-(4-methoxypyrimidin-5-yl)azetidine-1-carbonyl)-5-oxooctahydro-1H-pyrrolo[1,2-a]azepin-6-yl)carbamoyl)benzo [b]thiophen-5-yl)methyl)(phenoxy)phosphoryl)-L-alaninate] has an IC50 of 100 to 1000 nM.
`CCCOC(=O)[C@H](C)NP(=O)(Oc1ccccc1)C(F)c1ccc2sc(C(=O)N[C@H]3CCC[C@H]4CC[C@@H](C(=O)N5CC(c6cncnc6N(C)C)C5)N4C3=O)cc2c1` (stereo partly drawn) [Compound 1043] gave an IC50 of less than 100 nM.
`CCCOC(=O)[C@H](C)NP(=O)(Oc1ccccc1)[C@@H](F)c1ccc2sc(C(=O)N[C@H]3CCC[C@H]4CC[C@@H](C(=O)N5CC(c6cncc(F)c6O)C5)N4C3=O)cc2c1` (stereo partly drawn) [Compound 1060, propyl (((R)-fluoro(2-(((3S,6S,9aS)-3-(3-(5-fluoro-4-hydroxypyridin-3-yl)azetidine-1-carbonyl)-5-oxooctahydro-1H-pyrrolo[1,2-a]azepin-6-yl)carbamoyl)benzo [b]thiophen-5-yl)methyl)(phenoxy)phosphoryl)-L-alaninate] gave an IC50 of 100 to 1000 nM.
Compound `CCCOC(=O)[C@H](C)NP(=O)(Oc1ccccc1)[C@H](F)c1ccc2sc(C(=O)N[C@H]3CCC[C@H]4CC[C@@H](C(=O)N5CC(c6cnccc6N6CC(C#N)C6)C5)N4C3=O)cc2c1` (stereo partly drawn) [Compound 1061, propyl (((S)-(2-(((3S,6S,9aS)-3-(3-(4-(3-cyanoazetidin-1-yl)pyridin-3-yl)azetidine-1-carbonyl)-5-oxooctahydro-1H-pyrrolo[1,2-a]azepin-6-yl)carbamoyl)benzo [b]thiophen-5-yl)fluoromethyl) (phenoxy)phosphoryl)-L-alaninate] has an IC50 of 100 to 1000 nM.
`CCCOC(=O)[C@H](C)NP(=O)(Oc1ccccc1)[C@@H](F)c1ccc2sc(C(=O)N[C@H]3CCC[C@H]4CC[C@@H](C(=O)N5CC(c6cnccc6N6CC(OC)C6)C5)N4C3=O)cc2c1` (stereo partly drawn) [Compound 1062, propyl (((R)-fluoro(2-(((3S,6S,9aS)-3-(3-(4-(3-methoxyazetidin-1-yl)pyridin-3-yl)azetidine-1-carbonyl)-5-oxooctahydro-1H-pyrrolo[1,2-a]azepin-6-yl)carbamoyl)benzo [b]thiophen-5-yl)methyl)(phenoxy)phosphoryl)-L-alaninate] showed an IC50 of 100 to 1000 nM.
Compound `CCCOC(=O)[C@H](C)NP(=O)(Oc1ccccc1)[C@H](F)c1ccc2sc(C(=O)N[C@H]3CCC[C@H]4CC[C@@H](C(=O)N5CC(c6cnccc6N6CC(OC)C6)C5)N4C3=O)cc2c1` (stereo partly drawn) [Compound 1063, propyl (((S)-fluoro(2-(((3S,6S,9aS)-3-(3-(4-(3-methoxyazetidin-1-yl)pyridin-3-yl)azetidine-1-carbonyl)-5-oxooctahydro-1H-pyrrolo[1,2-a]azepin-6-yl)carbamoyl)benzo [b]thiophen-5-yl)methyl)(phenoxy)phosphoryl)-L-alaninate] has an IC50 of less than 100 nM.
In the case of `CCCOC(=O)[C@H](C)NP(=O)(Oc1ccccc1)[C@@H](F)c1ccc2sc(C(=O)N[C@H]3CCC[C@H]4CC[C@@H](C(=O)N5CC(c6cnccc6N6CCOCC6)C5)N4C3=O)cc2c1` (stereo partly drawn) [Compound 1064, propyl (((R)-fluoro(2-(((3S,6S,9aS)-3-(3-(4-morpholinopyridin-3-yl)azetidine-1-carbonyl)-5-oxooctahydro-1H-pyrrolo[1,2-a]azepin-6-yl)carbamoyl)benzo [b]thiophen-5-yl)methyl)(phenoxy)phosphoryl)-L-alaninate], the IC50 is reported as less than 100 nM.
Compound `CCCOC(=O)[C@H](C)NP(=O)(Oc1ccccc1)[C@H](F)c1ccc2sc(C(=O)N[C@H]3CCC[C@H]4CC[C@@H](C(=O)N5CC(c6cnccc6N6CCOCC6)C5)N4C3=O)cc2c1` (stereo partly drawn) [Compound 1065, propyl (((S)-fluoro(2-(((3S,6S,9aS)-3-(3-(4-morpholinopyridin-3-yl)azetidine-1-carbonyl)-5-oxooctahydro-1H-pyrrolo[1,2-a]azepin-6-yl)carbamoyl)benzo [b]thiophen-5-yl)methyl)(phenoxy)phosphoryl)-L-alaninate] has an IC50 of less than 100 nM.
Compound `CCCOC(=O)[C@H](C)NP(=O)(Oc1ccccc1)[C@@H](F)c1ccc2sc(C(=O)N[C@H]3CCC[C@H]4CC[C@@H](C(=O)N5CC(c6cncnc6N6CCOCC6)C5)N4C3=O)cc2c1` (stereo partly drawn) [Compound 1066, propyl (((R)-fluoro(2-(((3S,6S,9aS)-3-(3-(4-morpholino-pyrimidin-5-yl)azetidine-1-carbonyl)-5-oxooctahydro-1H-pyrrolo[1,2-a]azepin-6-yl)carbamoyl)benzo [b]thiophen-5-yl)methyl)(phenoxy)phosphoryl)-L-alaninate] has an IC50 of 100 to 1000 nM.
